According to patent US20250213589A1, “METHODS AND COMPOSITIONS FOR TE[…]” (priority 2023, published 2025):

Columns and labels:
[1] = tested on: endogenous testosterone, LH, and FSH production; experiment: Example 3: hormone levels after administration of enclomiphene (pre-TRT); type: in vivo, human; conditions: after 6.25 mg of enclomiphene; n=1
Procedure: This example investigated the effects of administering a SERM (enclomiphene) on endogenous testosterone, LH, and FSH production.
Hormone levels were measured after administration of 6.25 mg of enclomiphene (see Table 3, n=1).

[2] = FIG. 1: testosterone concentration in a patient at various time points after 200 mg of testosterone; conditions: after administration; FIG. 1, 200 mg of testosterone
Procedure: FIG. 1 is a phase diagram of the testosterone concentration in a patient at various time points after being administered 200 mg of testosterone.
Hormone levels were measured after co-administration of 200 mg of testosterone and 6.25 mg of enclomiphene for 30 days. Testosterone concentration was measured at +4 hours and +12 hours after administration. […] Testosterone concentration was measured at +4 hours after administration to capture the peak testosterone concentration (cMax) and +12 hours after administration to capture the trough testosterone concentration (cMin) to determine if endogenous testosterone suppression is prevented with the enclomiphene.

Row | SMILES | Calculated free testosterone levels [1] [pg/mL] | Sex Hormone Binding Globulin [1] [nmol/L] | Testosterone, Bioavailable [1] [ng/dL] | Testosterone, Free [1] [pg/mL] | Testosterone, Total, MS [1] [ng/dL] | increase of calculated free testosterone from baseline (114 pg/mL) [1] [%] | time of testosterone peak [2] [h] | time until testosterone is out of the system [2] [h]
1 | CCN(CC)CCOc1ccc(/C(=C(/Cl)c2ccccc2)c2ccccc2)cc1 [enclomiphene] | 197 | 20 | 322.9 | 153.7 | 724 | 73 | – | –
2 | C[C@]12CC[C@H]3[C@@H](CCC4=CC(=O)CC[C@@]43C)[C@@H]1CC[C@@H]2O [Testosterone, testosterone] | – | – | – | – | – | – | 3 to 5 | ≤ 12
